Measured values reported in article PMC11844072, “Novel 5,6-dichlorobenzimidazole derivatives as dual BRAFWT and BRAFV600E inhibitors: design, synthesis, anti-cancer activity and molecular dynamics simulations” (BMC Chemistry, 2025).

Legend:
Assay in all cases: NCI 60 single concentration growth inhibition
Format in all cases: cell-based, human
COLO 205 = details: COLO 205, Colon cancer; for inhibition at 10 µM: Homo sapiens, read-out: GI%
Protocol: (§1) The synthesized dichlorobenzimidazoles 10a–p were assayed for their influence on divers cancer cell lines according to the method presented in the Additional file A.
(§2) 5. Screening of cytotoxic activity against a panel of sixty human tumor cell lines
(§3) The selected compounds by NCI were evaluated for their anticancer activity in a two-stage process. First, these compounds were screened against the full NCI 60 cell lines panel at a single high dose of 10 µM. Then, the output from the single dose screen is reported as a mean graph. […]
(§4) Assay protocol. The human tumor cell lines of the cancer screening panel are grown in RPMI 1640 medium containing 5% fetal bovine serum and 2 mM L-glutamine. For a typical screening experiment, cells are inoculated into 96 well microtiter plates in 100 µL at plating densities ranging from 5000 to 40,000 cells/well depending on the doubling time of individual cell lines. After cell inoculation, the microtiter plates are incubated at 37 °C, 5% CO 2, 95% air and 100% relative humidity for 24 h prior to addition of the experimental drugs.
(§5) After 24 h, two plates of each cell line are fixed in situ with TCA, to represent a measurement of the cell population for each cell line at the time of drug addition (Tz). The experimental drugs are solubilized in dimethyl sulfoxide at 400-fold the desired final maximum test concentration and stored frozen prior to use. At the time of drug addition, an aliquot of frozen concentrate is thawed and diluted to twice the desired final maximum test concentration with complete medium containing 50 µg/mL gentamicin. Additional four, 10-fold or ½ log serial dilutions are made to provide a total of five drug concentrations plus control.
(§6) Aliquots of […] of these different drug dilutions are added to the appropriate microtiter wells already containing […] of medium, resulting in the required final drug concentrations.
(§7) Following drug addition, the plates are incubated for an additional 48 h at 37 °C, 5% CO 2, 95% air, and 100% relative humidity. For adherent cells, the assay is terminated by the addition of cold TCA.
(§8) Cells are fixed in situ by the gentle addition of 50 µL of cold 50% (w/v) TCA (final concentration, 10% TCA) and incubated for 60 min at 4 °C. The supernatant is discarded, and the plates are washed five times with tap water and air dried. Sulforhodamine B (SRB) solution ([…]) at 0.4% (w/v) in 1% acetic acid is added to each well, and plates are incubated for 10 min at room temperature. After staining, unbound dye is removed by washing five times with 1% acetic acid and the plates are air dried. Bound stain is subsequently solubilized with 10 mM trizma base, and the absorbance is read on an automated plate reader at a wavelength of 515 nm. For suspension cells, the methodology is […]
(§9) the same except that the assay is terminated by fixing settled cells at the bottom of the wells by gently adding 50 µl of 80% TCA (final concentration, 16% TCA). Using the seven absorbance measurements [time zero, (Tz), control growth, (C), and test growth in the presence of drug at the five concentration levels (Ti)], the percentage growth is calculated at each of the drug concentrations […]
(§10) Percentage growth inhibition is calculated as: [(Ti Tz)/(C–Tz)] x 100 for concentrations for which Ti>/=Tz and [(Ti-Tz)/Tz] x 100 for concentrations for which Ti < Tz. […]
(§11) Results for each compound were reported as a mean graph of the percent growth of the treated cells when compared to the untreated control cells. There after obtaining the results for one dose assay, analysis of historical Development Therapeutics Programme (DTP) was performed and compounds which satisfies predetermined threshold inhibition criteria is selected for NCI full panel 5 dose assay.

DU-145 = details: DU-145, Prostate cancer; for inhibition at 10 µM: Homo sapiens, read-out: GI%
Protocol: as §1, §2, §3, §4, §5, §6, §7, §8, §9, §10, §11

HCC-2998 = details: HCC-2998, Colon cancer; for inhibition at 10 µM: Homo sapiens, read-out: GI%
Protocol: as §1, §2, §3, §4, §5, §6, §7, §8, §9, §10, §11

HCT-15 = details: HCT-15, Colon cancer; for inhibition at 10 µM: Homo sapiens, read-out: GI%
Protocol: as §1, §2, §3, §4, §5, §6, §7, §8, §9, §10, §11

HOP-92 = details: HOP-92, Non-small cell lung cancer; for inhibition at 10 µM: Homo sapiens, read-out: GI%
Protocol: as §1, §2, §3, §4, §5, §6, §7, §8, §9, §10, §11

HT29 = details: for inhibition at 10 µM: Homo sapiens, HT-29, HT29, Colon cancer, read-out: GI%
Protocol: as §1, §2, §3, §4, §5, §6, §7, §8, §9, §10, §11

K-562 = details: for inhibition at 10 µM: Homo sapiens, K562, K-562, Leukemia, read-out: GI%
Protocol: as §1, §2, §3, §4, §5, §6, §7, §8, §9, §10, §11

LOX IMVIL = details: Melanoma; for inhibition at 10 µM: Homo sapiens, read-out: GI%
Protocol: as §1, §2, §3, §4, §5, §6, §7, §8, §9, §10, §11

NCI-H460 = details: NCI-H460, Non-small cell lung cancer; for inhibition at 10 µM: Homo sapiens, read-out: GI%
Protocol: as §1, §2, §3, §4, §5, §6, §7, §8, §9, §10, §11

NCI-H522 = details: NCI-H522, Non-small cell lung cancer; for inhibition at 10 µM: Homo sapiens, read-out: GI%
Protocol: as §1, §2, §3, §4, §5, §6, §7, §8, §9, §10, §11

NCI/ADR-RES = details: Ovarian cancer; for inhibition at 10 µM: Homo sapiens, read-out: GI%
Protocol: as §1, §2, §3, §4, §5, §6, §7, §8, §9, §10, §11

OVCAR-3 = details: OVCAR-3, Ovarian cancer; for inhibition at 10 µM: Homo sapiens, read-out: GI%
Protocol: as §1, §2, §3, §4, §5, §6, §7, §8, §9, §10, §11

OVCAR-4 = details: OVCAR-4, Ovarian cancer; for inhibition at 10 µM: Homo sapiens, read-out: GI%
Protocol: as §1, §2, §3, §4, §5, §6, §7, §8, §9, §10, §11

SNB-19 = details: SNB-19, CNS cancer; for inhibition at 10 µM: Homo sapiens, read-out: GI%
Protocol: as §1, §2, §3, §4, §5, §6, §7, §8, §9, §10, §11

SW-620 = details: SW-620, Colon cancer; for inhibition at 10 µM: Homo sapiens, read-out: GI%
Protocol: as §1, §2, §3, §4, §5, §6, §7, §8, §9, §10, §11

TK-10 = details: TK-10, Renal cancer; for inhibition at 10 µM: Homo sapiens, read-out: GI%
Protocol: as §1, §2, §3, §4, §5, §6, §7, §8, §9, §10, §11

U251 = details: for inhibition at 10 µM: Homo sapiens, U-251, U251, CNS cancer, read-out: GI%
Protocol: as §1, §2, §3, §4, §5, §6, §7, §8, §9, §10, §11

Row | Molecule | inhibition at 10 µM (COLO 205) | inhibition at 10 µM (DU-145) | inhibition at 10 µM (HCC-2998) | inhibition at 10 µM (HCT-15) | inhibition at 10 µM (HOP-92) | inhibition at 10 µM (HT29) | inhibition at 10 µM (K-562) | inhibition at 10 µM (LOX IMVIL) | inhibition at 10 µM (NCI-H460) | inhibition at 10 µM (NCI-H522) | inhibition at 10 µM (NCI/ADR-RES) | inhibition at 10 µM (OVCAR-3) | inhibition at 10 µM (OVCAR-4) | inhibition at 10 µM (SNB-19) | inhibition at 10 µM (SW-620) | inhibition at 10 µM (TK-10) | inhibition at 10 µM (U251) | further results
1 | COC(=O)COc1ccc(C=NNC(=O)Cn2c(-c3ccc(OC)cc3)nc3cc(Cl)c(Cl)cc32)cc1OC [Compound 10p, Methyl-2-(4-((2-(2-(5,6-dichloro-2-(4-methoxyphenyl)-1H-benzo[d]imidazol-1-yl)acetyl)hydrazono)methyl)-2-methoxyphenoxy)acetate] | 34.9% | 143% | 86.1% | 21.5% | < 5% | 116% | 12.3% | 25.2% | < 5% | 6.3% | 5.42% | < 5% | < 5% | < 5% | < 5% | 58% | < 5% | 
2 | COc1ccc(-c2nc3cc(Cl)c(Cl)cc3n2CC(=O)NN=Cc2ccc(O)c(OC)c2)cc1 [Compound 10l, 2-(5,6-Dichloro-2-(4-methoxyphenyl)-1H-benzo[d]imidazol-1-yl)-N'-(4-hydroxy-3-methoxybenzylidene)acetohydrazide] | < 5% | 31.8% | 18.2% | 51.5% | 40.1% | 13% | 58.1% | 38.5% | 31% | 23.5% | 38.4% | 28.7% | 52.9% | 37.3% | 9.29% | 16.2% | 25.8% | 
3 | COc1ccc(C=NNC(=O)Cn2c(-c3ccc(OC)cc3)nc3cc(Cl)c(Cl)cc32)cc1 [Compound 10d, 2-(5,6-Dichloro-2-(4-methoxyphenyl)-1H-benzo[d]imidazol-1-yl)-N'-(4-methoxybenzylidene)acetohydrazide] | 42.7% | 41.2% | 34.9% | 62.9% | 10.9% | 37.5% | 58.7% | 24.7% | 47.2% | 27.9% | 36% | 22.7% | 65% | 50.5% | 32.3% | 34.9% | 38.6% | 
4 | COc1ccc(-c2nc3cc(Cl)c(Cl)cc3n2CC(=O)NN=Cc2ccc(OC)c(O)c2)cc1 [Compound 10k, 2-(5,6-Dichloro-2-(4-methoxyphenyl)-1H-benzo[d]imidazol-1-yl)-N'-(3-hydroxy-4-methoxybenzylidene)acetohydrazide] | 22.1% | 26.4% | 32.2% | 47.2% | 12% | 30.2% | 59.9% | 38.4% | 24.8% | 37.8% | 40.1% | 23.3% | 47.3% | 40.3% | 6.39% | 28% | 38% | 
5 | 3-(4-((2-(2-(5,6-Dichloro-2-(4-methoxyphenyl)-1H-benzo[d]imidazol-1-yl)acetyl)hydrazono)methyl)phenoxy)propanoic acid [Compound 10i] |  |  |  |  |  |  |  |  |  |  |  |  |  |  |  |  |  | GI% (COLO 205; 10 μM): – (GI% < 5%); GI% (DU-145; 10 μM): – (GI% < 5%); GI% (HCC-2998; 10 μM): – (GI% < 5%); GI% (HCT-15; 10 μM): 21.36%; GI% (HOP-92; 10 μM): 6.61%; GI% (HT29; HT29, Colon cancer, 10 μM): – (GI% < 5%); GI% (K-562; K-562, Leukemia, 10 μM): 10.25%; GI% (LOX IMVIL; 10 μM): 10.92%; GI% (NCI-H460; 10 μM): – (GI% < 5%); GI% (NCI-H522; 10 μM): 10.42%; GI% (NCI/ADR-RES; 10 μM): – (GI% < 5%); GI% (OVCAR-3; 10 μM): – (GI% < 5%); GI% (OVCAR-4; 10 μM): – (GI% < 5%); GI% (SNB-19; 10 μM): 5.79%; GI% (SW-620; 10 μM): – (GI% < 5%); GI% (TK-10; 10 μM): – (GI% < 5%); GI% (U251; U251, CNS cancer, 10 μM): 7.22%
6 | COC(=O)COc1ccc(C=NNC(=O)Cn2c(-c3ccc(OC)cc3)nc3cc(Cl)c(Cl)cc32)cc1 [Compound 10h, Methyl-2-(4-((2-(2-(5,6-dichloro-2-(4-methoxyphenyl)-1H-benzo[d]imidazol-1-yl)acetyl)hydrazono)methyl)phenoxy)acetate] | 51.5% | 158% | 142% | 40.3% | 7.02% | 93.4% | 31.4% | 39.5% | < 5% | 7.31% | < 5% | 93% | < 5% | 8.19% | < 5% | < 5% | 10.1% | 
7 | COc1ccc(-c2nc3cc(Cl)c(Cl)cc3n2CC(=O)NN=Cc2ccc(O)cc2)cc1 [Compound 10b, 2-(5,6-Dichloro-2-(4-methoxyphenyl)-1H-benzo[d]imidazol-1-yl)-N'-(4-hydroxybenzylidene)acetohydrazide] | 9.38% | 30.8% | 21.4% | 52.3% | 40% | 25.1% | 47.5% | 42.6% | 49.7% | 21.8% | 28.5% | 27% | 52.8% | 39% | 18.6% | 13.9% | 42.8% | 
